Data as given in patent US10481149B2.

Key:
Assay type in all cases: cell-based
BSEP [1] = target: T1, BSEP (Mus musculus, UniProt Q9QY30); test: IC50 for inhibition of BSEP activity in mouse hepatocytes
T1 sequence (Q9QY30 1-1321): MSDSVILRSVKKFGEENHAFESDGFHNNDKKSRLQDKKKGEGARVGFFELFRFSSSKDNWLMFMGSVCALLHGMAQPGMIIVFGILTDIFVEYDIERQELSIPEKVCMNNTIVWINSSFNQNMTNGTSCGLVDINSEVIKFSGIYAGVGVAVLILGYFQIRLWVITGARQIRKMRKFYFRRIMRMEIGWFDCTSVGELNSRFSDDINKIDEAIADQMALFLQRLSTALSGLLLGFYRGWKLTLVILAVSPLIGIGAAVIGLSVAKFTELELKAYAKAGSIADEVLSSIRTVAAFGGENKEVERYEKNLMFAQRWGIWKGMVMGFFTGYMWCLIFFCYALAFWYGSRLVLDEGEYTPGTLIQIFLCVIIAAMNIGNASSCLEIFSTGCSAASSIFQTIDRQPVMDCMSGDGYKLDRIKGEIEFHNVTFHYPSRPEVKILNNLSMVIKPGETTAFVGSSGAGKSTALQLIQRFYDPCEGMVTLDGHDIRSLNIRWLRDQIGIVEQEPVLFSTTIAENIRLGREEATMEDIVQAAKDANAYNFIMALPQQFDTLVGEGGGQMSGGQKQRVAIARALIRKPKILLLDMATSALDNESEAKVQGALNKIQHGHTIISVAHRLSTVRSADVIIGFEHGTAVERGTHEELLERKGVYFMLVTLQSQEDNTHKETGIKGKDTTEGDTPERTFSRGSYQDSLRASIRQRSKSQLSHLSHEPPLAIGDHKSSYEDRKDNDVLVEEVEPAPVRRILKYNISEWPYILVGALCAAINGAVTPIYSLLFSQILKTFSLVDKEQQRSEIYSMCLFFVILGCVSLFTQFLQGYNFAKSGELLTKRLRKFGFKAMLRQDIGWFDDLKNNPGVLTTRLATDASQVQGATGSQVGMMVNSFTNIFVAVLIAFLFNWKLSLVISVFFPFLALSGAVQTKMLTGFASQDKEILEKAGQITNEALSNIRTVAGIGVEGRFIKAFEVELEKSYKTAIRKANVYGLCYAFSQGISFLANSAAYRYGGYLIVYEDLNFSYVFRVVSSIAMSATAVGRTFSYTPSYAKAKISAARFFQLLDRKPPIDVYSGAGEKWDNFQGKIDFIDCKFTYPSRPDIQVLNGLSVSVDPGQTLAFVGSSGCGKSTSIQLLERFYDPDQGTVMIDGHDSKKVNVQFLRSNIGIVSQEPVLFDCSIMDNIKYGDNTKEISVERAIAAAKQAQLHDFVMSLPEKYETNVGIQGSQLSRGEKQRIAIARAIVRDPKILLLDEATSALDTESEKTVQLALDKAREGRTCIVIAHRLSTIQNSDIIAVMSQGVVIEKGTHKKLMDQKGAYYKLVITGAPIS
Procedure: (§1) Kinetic parameters were calculated using standard Michaelis-Menten kinetics. IC50 values were determined using Prism software (La Jolla, Calif.) or median-effect equation. [Chou et al., Theoretical basis, experimental design, and computerized simulation of synergism and antagonism in Drug Combination Studies. Pharmacological Reviews 58, 621, 2006]

BSEP [2] = target: BSEP (Macaca fascicularis, UniProt D2CFL3); test: IC50 for inhibition of BSEP activity in monkey hepatocytes; details: hepatocytes in suspension
Procedure: as §1

BSEP [3] = target: BSEP (Homo sapiens, UniProt O95342); test: IC50 for inhibition of BSEP activity in human hepatocytes
Procedure: as §1

Chain of BSEP (Macaca fascicularis, UniProt D2CFL3) (D2CFL3 1-1323): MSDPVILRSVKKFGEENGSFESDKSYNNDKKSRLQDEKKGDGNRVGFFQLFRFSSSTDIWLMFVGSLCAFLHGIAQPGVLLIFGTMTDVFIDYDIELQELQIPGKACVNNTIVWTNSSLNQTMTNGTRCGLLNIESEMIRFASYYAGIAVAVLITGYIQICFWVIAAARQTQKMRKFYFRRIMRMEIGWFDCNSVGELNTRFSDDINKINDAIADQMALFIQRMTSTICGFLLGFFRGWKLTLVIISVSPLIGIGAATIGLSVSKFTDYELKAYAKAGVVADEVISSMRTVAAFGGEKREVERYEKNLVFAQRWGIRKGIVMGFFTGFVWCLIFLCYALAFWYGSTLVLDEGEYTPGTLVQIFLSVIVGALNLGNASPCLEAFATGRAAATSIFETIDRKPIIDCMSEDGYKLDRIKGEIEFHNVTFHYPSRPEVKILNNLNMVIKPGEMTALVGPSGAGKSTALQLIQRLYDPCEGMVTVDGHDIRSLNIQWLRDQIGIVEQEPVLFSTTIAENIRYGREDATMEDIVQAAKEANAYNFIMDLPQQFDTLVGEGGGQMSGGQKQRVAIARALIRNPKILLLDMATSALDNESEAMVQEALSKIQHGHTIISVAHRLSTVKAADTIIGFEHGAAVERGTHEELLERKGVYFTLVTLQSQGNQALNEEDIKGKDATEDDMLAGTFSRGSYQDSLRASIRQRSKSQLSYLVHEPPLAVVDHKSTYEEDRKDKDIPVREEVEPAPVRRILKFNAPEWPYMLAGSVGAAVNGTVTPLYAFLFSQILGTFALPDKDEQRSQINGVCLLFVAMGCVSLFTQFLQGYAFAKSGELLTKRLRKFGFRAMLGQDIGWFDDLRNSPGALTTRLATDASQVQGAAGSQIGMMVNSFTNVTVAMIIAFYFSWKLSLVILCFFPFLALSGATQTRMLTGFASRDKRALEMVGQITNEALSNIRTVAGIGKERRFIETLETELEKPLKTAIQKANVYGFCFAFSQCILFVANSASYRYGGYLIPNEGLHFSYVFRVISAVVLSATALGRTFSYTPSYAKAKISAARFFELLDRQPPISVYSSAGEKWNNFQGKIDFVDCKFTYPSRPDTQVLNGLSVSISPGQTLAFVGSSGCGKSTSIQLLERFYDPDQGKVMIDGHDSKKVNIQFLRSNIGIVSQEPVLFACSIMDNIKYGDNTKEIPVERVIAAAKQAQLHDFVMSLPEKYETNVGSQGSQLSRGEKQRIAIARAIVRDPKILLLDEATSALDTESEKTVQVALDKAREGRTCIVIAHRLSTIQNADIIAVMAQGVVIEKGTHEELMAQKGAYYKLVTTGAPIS
Chain of BSEP (Homo sapiens, UniProt O95342) (O95342 whole entry): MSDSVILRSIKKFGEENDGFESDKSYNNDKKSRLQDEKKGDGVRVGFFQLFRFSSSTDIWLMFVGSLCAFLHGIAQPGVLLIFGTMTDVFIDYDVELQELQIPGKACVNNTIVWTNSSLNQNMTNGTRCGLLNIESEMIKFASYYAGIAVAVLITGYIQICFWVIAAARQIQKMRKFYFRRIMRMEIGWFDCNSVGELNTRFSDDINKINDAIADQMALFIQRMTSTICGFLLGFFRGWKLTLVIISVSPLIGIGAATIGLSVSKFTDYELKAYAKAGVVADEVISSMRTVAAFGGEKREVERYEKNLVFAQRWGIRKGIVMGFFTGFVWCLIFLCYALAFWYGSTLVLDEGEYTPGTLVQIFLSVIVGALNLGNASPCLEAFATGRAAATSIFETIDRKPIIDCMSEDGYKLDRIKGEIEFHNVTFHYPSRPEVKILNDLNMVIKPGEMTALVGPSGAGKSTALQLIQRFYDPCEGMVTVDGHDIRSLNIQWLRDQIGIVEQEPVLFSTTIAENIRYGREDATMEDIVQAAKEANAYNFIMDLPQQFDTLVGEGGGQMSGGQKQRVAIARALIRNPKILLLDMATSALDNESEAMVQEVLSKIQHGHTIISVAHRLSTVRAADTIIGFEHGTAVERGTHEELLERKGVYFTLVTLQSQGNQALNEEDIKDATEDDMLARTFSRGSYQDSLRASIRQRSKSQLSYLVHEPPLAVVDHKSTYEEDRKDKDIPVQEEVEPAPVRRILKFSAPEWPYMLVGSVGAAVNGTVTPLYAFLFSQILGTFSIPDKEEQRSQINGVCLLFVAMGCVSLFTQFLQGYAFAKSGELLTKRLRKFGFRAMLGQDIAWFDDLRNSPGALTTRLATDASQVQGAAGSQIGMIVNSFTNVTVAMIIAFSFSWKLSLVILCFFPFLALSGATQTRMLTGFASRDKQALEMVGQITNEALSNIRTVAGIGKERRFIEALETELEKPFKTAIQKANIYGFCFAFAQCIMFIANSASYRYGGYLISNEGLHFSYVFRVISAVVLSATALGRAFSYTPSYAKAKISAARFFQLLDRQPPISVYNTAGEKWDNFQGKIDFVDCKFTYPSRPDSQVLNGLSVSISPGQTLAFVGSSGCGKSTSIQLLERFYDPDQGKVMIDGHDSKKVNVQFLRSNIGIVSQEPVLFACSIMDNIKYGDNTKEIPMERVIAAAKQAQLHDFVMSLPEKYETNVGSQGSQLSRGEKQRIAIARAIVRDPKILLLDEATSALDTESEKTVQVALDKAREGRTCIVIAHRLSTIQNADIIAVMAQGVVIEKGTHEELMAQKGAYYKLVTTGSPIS

Row | SMILES | IC50 (BSEP [1]) [µM] | IC50 at 1 h (BSEP [2]) [µM] | IC50 (BSEP [3]) [µM]
1 | CC(=O)N1CCN(c2ccc(OCC3COC(Cn4ccnc4)(c4ccc(Cl)cc4Cl)O3)cc2)CC1 (stereo not shown) [Ketoconazole, ketoconazole] | > 10 | 1 to 10 | 
2 | CO[C@H]1/C=C/O[C@@]2(C)Oc3c(C)c(O)c4c(O)c(c(/C=N/N5CCN(C)CC5)c(O)c4c3C2=O)NC(=O)/C(C)=C\C=C\[C@H](C)[C@H](O)[C@@H](C)[C@@H](O)[C@@H](C)[C@H](OC(C)=O)[C@@H]1C [Rifampicin] | > 10 | < 1 | 
3 | Cc1c(C)c2c(c(C)c1O)CCC(C)(COc1ccc(CC3SC(=O)NC3=O)cc1)O2 (stereo not shown) [Troglitazone, troglitazone] | > 10 | 1 to 10 | 1 to 10
